In this assay the test system is MDA-MB-468 complex spheroids with HUVEC/MSC, viability. As to the kind of experiment: Anticancer human tumor MDA-MB-468 cell line growth inhibition.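 For all read-outs here: spheroids exposed to agents for seven days.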 Conditions: for viability, T/C: stronger effect = lower value; for IC50: curve of compound. The source says:
Multicellular complex tumor spheroid response to LSD1 Inhibitor Iadademstat in combination with a variety of drugs and investigational agents in selected tumor cell lines
The current study was undertaken to assess response to LSD1 inhibitors in combination with standard-of-care drugs and investigational agents in solid tumor complex spheroid models as well as in the K-562 leukemia. Complex spheroids include a stromal component modeled by human endothelial cells (HUVEC) and fibroblasts modeled by human mesenchymal stem cells (MSCs). The concentration ranges selected for each drug and investigational agent were based upon clinically achievable concentrations if the clinical Cmax of the agent was known.
Compounds. The drugs and investigational agents used in this study are listed on Table 1. All of the agents used, including staurosporine (NSC755774) and gemcitabine (NSC613327), were obtained from the Developmental Therapeutics Program, NCI. FDA-approved anticancer drugs are available from the NCI at http://dtp.nci.nih.gov/branches/dscb/oncology_drugset_explanation.html. Drugs and investigational agents were >95% pure by proton nuclear magnetic resonance (NMR) and liquid chromatography/mass spectrometry (LC/MS). Stock solutions were prepared at 400x in DMSO, stored at -70 degrees C, and diluted in fresh medium prior to their use. The final concentration of DMSO in cell culture wells never exceeded 0.25% (v/v). The FDA-approved anticancer drug set is available from the Developmental Therapeutics Program at https://dtp.cancer.gov/organization/dscb/obtaining/available_plates.htm. All drugs and investigational agents were tested over a range starting from a high concentration at or near the clinical Cmax and decreasing in half-log increments. If the clinical Cmax for an agent had not been determined, the highest concentration tested was 10 microM.
Cell Lines. The patient-derived cancer cell (PDC) lines: 292921-168-R-J2-PDC, K24384-001-R-PDC, and 521955-158-R2-J5-PDC pancreatic carcinomas, 556581-035-R-J1 ovarian carcinoma, 324938-238-R-J1-PDC, 855422-203-R-J1-PDC and 883617-216-R-J1-PDC urothelial bladder carcinomas, 743489-274-T-PDC renal cell carcinoma, 138582-R-J1 Merkel cell tumor, K60290-347-R-J1 and K57222-313-R-J1-PDC glioblastomas, 653999-131-R-J2-PDC, LG0703-F948-PDC, and 349418-098-R-PDC non-small cell lung carcinomas, 885512-296-R-J2-PDC, 171881-019-R-J1-PDC breast carcinomas and 186277-243-T-J2-PDC and 233499-124-R-J2-PDC colon carcinomas were obtained from the NCI Patient-Derived Models Repository (PDMR, https://pdmr.cancer.gov). The established cell lines NCI/ADR-RES (RRID:CVCL_14520 and OVCAR-5 (RRID:CVCL_1628) ovarian carcinomas, 786-O (RRID:CVCL_1051) and A498 (RRID:CVCL_A498) renal cell carcinoma, NCI-H211 (ATCC, cat. CRL-5824; RRID:CVCL_1529), NCI-H196 (ATCC, cat. CRL-5823, RRID:CVCL_1509), SW 1271 (ATCC, cat. CRL-2177, RRID:CVCL_1716) and NCI-H1876 (ATCC, cat. CRL-5902, RRID:CVCL_1503) small cell lung carcinomas, MDA-MB-231 (RRID:CVCL_0062) and MDA-MB-468 (RRID:CVCL_0419)breast carcinomas (10-12). Pooled donor human umbilical vein endothelial cells (HUVEC, Lonza, cat. CC-2519) and human mesenchymal stem cells (hMSC, Lonza, cat. PT-2501) were purchased from Lonza (Walkersville, MD).
Cell Culture. All cells were maintained in an incubator at 37 degrees C and 5% CO2 with 95% humidity. The PDC lines were cultured according to standard operating procedures established by the NCI PDMR (https://pdmr.cancer.gov). Briefly all PDCs were thawed and cultured in Matrigel-coated flasks prepared with a working solution of 1X Ham's F-12 nutrient mix, without supplementation (Invitrogen, Waltham, MA, cat. 11765054), 100 U/mL penicillin-streptomycin (Invitrogen, cat. 15140122), and 2.5% Matrigel (Corning Inc., Corning, NY, cat. 354248) for the first three passages. […]

The structures appear in SMILES notation. Values joined by “and” are separate entries in the source; they are usually repeats but may differ in a detail not shown here. Equal entries are not always repeated.

From PubChem BioAssay AID1918954 (Molecular Pharmacology Branch, DTP, NCI, 2023) come the findings set out here.

Regarding `CC(C)CC(NC(=O)C(Cc1ccccc1)NC(=O)c1cnccn1)B(O)O` (configuration not stated), the IC50 (as a rule, the midpoint of a concentration-inhibition curve) is 0.684 nM and < 0.316 nM. Also, the viability, T/C (commonly the result in the treated group divided by that in the control group, in per cent) (compound 0.00316 µM) was 0.95% and 0.15%. Further, the viability, T/C (compound 0.01 µM) is 1.2% and 0.15%. Further, the viability, T/C (compound 0.0316 µM) is 1.22% and 0.17%. For the same compound, the viability, T/C (compound 0.1 µM) is 1.51% and 0.22%.

As for `CC(C)CC(NC(=O)CNC(=O)c1cc(Cl)ccc1Cl)B1OC(=O)CC(CC(=O)O)(C(=O)O)O1` (configuration not stated), the half-inhibitory concentration (IC50) is 3.43 nM and 2.67 nM. In addition, the viability, T/C (compound 0.000316 µM) is 109%. In addition, the viability, T/C (compound 0.001 µM) was 90.5% and 96.4%. The viability, T/C (compound 0.00316 µM) was 55.3% and 42.1%. The viability, T/C (compound 0.01 µM) is 11.1% and 5.88%. Moreover, for the setting “compound 0.0316 µM”, the viability, T/C is 1.51% and 0.31%. Moreover, the viability, T/C (compound 0.1 µM) was 1.72% and 0.22%.

For `CC1(C)CCC(CN2CCN(c3ccc(C(=O)NS(=O)(=O)c4ccc(NCC5CCOCC5)c([N+](=O)[O-])c4)c(Oc4cnc5[nH]ccc5c4)c3)CC2)=C(c2ccc(Cl)cc2)C1`, the IC50 was 6600 nM and 1880 nM. Further, under “compound 0.0316 µM”, the viability, T/C is 93.2% and 90.6%. Moreover, the viability, T/C (compound 0.1 µM) was 102% and 95.5%. The viability, T/C (compound 0.316 µM) was 101% and 85.6%. Besides, the viability, T/C (compound 1 µM) is 91.7% and 74%. In addition, under “compound 3.16 µM”, the viability, T/C is 70.5% and 30.9%.

Consider `CC1COCCN1c1cc(-c2ccnn2C)c2ccnc(-c3ccn[nH]3)c2n1` (configuration not stated), for which the IC50 was 13.7 nM and < 3.16 nM. Also, the viability, T/C (compound 0.00316 µM) was 81.2% and 38.9%. Also, the viability, T/C (compound 0.01 µM) was 54.9% and 37.5%. Also, the viability, T/C (compound 0.0316 µM) is 35.7% and 19.3%. Further, the viability, T/C (compound 0.1 µM) is 27% and 8.03%. The viability, T/C (compound 0.316 µM) was 15.8% and 5.94%. Moreover, for the setting “compound 1 µM”, the viability, T/C is 12.2% and 2.35%.

For the compound `CC1COCCN1c1cc(C2(S(C)(=N)=O)CC2)nc(-c2ccnc3[nH]ccc23)n1` (configuration not stated), the IC50 was 282 nM and 835 nM. In addition, the viability, T/C (compound 0.0316 µM) was 101% and 78.9%. For the same compound, the viability, T/C (compound 0.1 µM) was 67.4% and 88.1%. Further, the viability, T/C (compound 0.316 µM) was 50.6% and 66.4%. The viability, T/C (compound 1 µM) is 30.4% and 46%. Moreover, the viability, T/C (compound 3.16 µM) was 21.9% and 24.2%. The viability, T/C (compound 10 µM) is 11.6% and 9.82%.

As for `CCN(c1cc(-c2ccc(CN3CCOCC3)cc2)cc(C(=O)NCc2c(C)cc(C)[nH]c2=O)c1C)C1CCOCC1`, the IC50 is > 3000 nM and 441 nM. Moreover, the viability, T/C (compound 0.00949 µM) was 81.6% and 96.5%. Where the note is “compound 0.03 µM”, the viability, T/C is 100% and 76.8%. The viability, T/C (compound 0.0949 µM) was 118% and 74.4%. Moreover, the viability, T/C (compound 0.3 µM) was 92.3% and 50.2%. Moreover, for the setting “compound 0.949 µM”, the viability, T/C was 92.2% and 44%. The viability, T/C (compound 3 µM) was 75.7% and 24.5%.

For `CC[C@@]1(O)C(=O)OCc2c1cc1n(c2=O)Cc2cc3c(CN(C)C)c(O)ccc3nc2-1`, the IC50 was 0.662 nM and 1.14 nM. Also, the viability, T/C (compound 0.000316 µM) is 69% and 95.9%. Where the note is “compound 0.001 µM”, the viability, T/C is 39.5% and 54.5%. For the same compound, the viability, T/C (compound 0.00316 µM) is 16.9% and 14%. For the same compound, the viability, T/C (compound 0.01 µM) was 10.4% and 12.7%. The viability, T/C (compound 0.0316 µM) was 7.18% and 6.23%. In addition, the viability, T/C (compound 0.1 µM) is 7.59% and 4.68%.

As for `CCc1c2c(nc3ccc(O)cc13)-c1cc3c(c(=O)n1C2)COC(=O)[C@]3(O)CC`, the IC50 was less than 0.949 nM. For the setting “compound 0.000949 µM”, the viability, T/C was 7.07% and 5.35%. For the same compound, the viability, T/C (compound 0.003 µM) was 7.03% and 4.74%. In addition, for the setting “compound 0.00949 µM”, the viability, T/C is 5.45% and 2.28%. The viability, T/C (compound 0.03 µM) was 2.45% and 0.63%. In addition, for the setting “compound 0.0949 µM”, the viability, T/C is 2.17% and 0.53%. Further, the viability, T/C (compound 0.3 µM) is 2.73% and 0.59%.

On to `COc1cc(C2c3cc4c(cc3C(OC3OC5COC(C)OC5C(O)C3O)C3COC(=O)C23)OCO4)cc(OC)c1O` (configuration not stated), for which the 50% inhibitory concentration (IC50) is 87.8 nM and 52.4 nM. In addition, the viability, T/C (compound 0.00949 µM) was 79% and 92.3%. For the same compound, the viability, T/C (compound 0.03 µM) is 76.9% and 70.8%. Besides, the viability, T/C (compound 0.0949 µM) was 48.1% and 27.1%. In addition, the viability, T/C (compound 0.3 µM) was 15.1% and 15%. Also, where the note is “compound 0.949 µM”, the viability, T/C is 14.4% and 10%. Besides, the viability, T/C (compound 3 µM) was 10.4% and 4.22%.

As for `COc1cc(Nc2ncc3c(n2)-c2ccc(Cl)cc2C(c2c(F)cccc2OC)=NC3)ccc1C(=O)O`, the IC50 was 5.54 nM and < 3.16 nM. Besides, the viability, T/C (compound 0.00316 µM) is 69.6% and 17.2%. For the same compound, under “compound 0.01 µM”, the viability, T/C is 28.3% and 7.92%. The viability, T/C (compound 0.0316 µM) is 17.4% and 5.89%. The viability, T/C (compound 0.1 µM) is 8.67% and 6.08%. For the setting “compound 0.316 µM”, the viability, T/C was 7.8% and 4.66%. In addition, the viability, T/C (compound 1 µM) is 7.38% and 3%.
